Source: ChEMBL document CHEMBL1201862, “PubChem BioAssay data set” (2004)
Calls of active or inactive are those of the source. Cut-off read from the data, not from the text of the source, for most assays here: actives have a measured IC50 and inactives only a lower limit.

What was measured:
[1] = blockers of SFLLRN-triggered platelet ATP secretion – cell-based, human platelets, luminescence, dry powder, dose response (AID 493100); format: functional
[2] = target: T1, Eukaryotic translation initiation factor 4H (Homo sapiens, UniProt Q15056); assay: eIF4H inhibition in translation initiation, SAR follow-up (AID 435011); format: functional
[3] = target: T2, Polyadenylate-binding protein 1 (Homo sapiens, UniProt P11940); assay: PABP inhibition in translation initiation, SAR follow-up (AID 435018); format: functional
[4] = target: T3, Carboxy-terminal domain RNA polymerase II polypeptide A small phosphatase 1 (Homo sapiens, UniProt Q9GZU7); assay: inhibitors of CTDSP1, concentration-response testing, biochemical assay, absorbance-based, actives from ultra-high-throughput screening (AID 540297); format: functional
T3 sequence (Q9GZU7 whole entry): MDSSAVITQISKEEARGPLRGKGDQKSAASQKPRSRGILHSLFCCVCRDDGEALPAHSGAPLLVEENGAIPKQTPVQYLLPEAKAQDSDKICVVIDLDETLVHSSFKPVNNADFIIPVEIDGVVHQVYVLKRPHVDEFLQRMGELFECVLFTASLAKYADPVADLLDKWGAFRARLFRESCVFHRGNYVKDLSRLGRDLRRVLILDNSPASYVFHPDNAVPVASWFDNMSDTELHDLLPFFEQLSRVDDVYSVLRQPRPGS

[5] = target: T4, Long-chain-fatty-acid--AMP ligase FadD28 (Mycobacterium tuberculosis, UniProt P9WQ59); assay: Fluorescence polarization aasay to screen for inhibitors that compete for the binding of FadD28 to a bisubstrate Measured in Biochemical System Using Plate Reader - 2147-01_Inhibitor_Dose_CherryPick_Activity.; format: functional, Mycobacterium tuberculosis H37Rv
T4 sequence (P9WQ59 whole entry): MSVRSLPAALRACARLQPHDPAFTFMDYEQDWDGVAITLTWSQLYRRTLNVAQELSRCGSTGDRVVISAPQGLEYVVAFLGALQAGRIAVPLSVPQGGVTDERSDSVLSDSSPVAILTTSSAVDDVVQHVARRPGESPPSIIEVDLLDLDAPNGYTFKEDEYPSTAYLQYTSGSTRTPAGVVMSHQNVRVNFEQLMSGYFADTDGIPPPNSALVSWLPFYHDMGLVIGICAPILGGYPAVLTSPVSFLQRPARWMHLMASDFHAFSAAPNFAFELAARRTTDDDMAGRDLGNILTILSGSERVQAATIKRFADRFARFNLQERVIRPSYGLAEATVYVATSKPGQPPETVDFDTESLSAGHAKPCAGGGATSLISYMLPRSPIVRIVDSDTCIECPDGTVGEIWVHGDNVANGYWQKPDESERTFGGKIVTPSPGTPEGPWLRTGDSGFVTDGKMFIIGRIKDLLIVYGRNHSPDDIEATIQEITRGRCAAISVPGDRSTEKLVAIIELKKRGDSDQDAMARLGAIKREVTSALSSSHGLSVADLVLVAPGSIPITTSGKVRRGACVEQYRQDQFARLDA

Saccharomyces cerevisiae = assay: NALP1 inhibitor project selectivity study, Caspase-1/ASC signal blockade IC50 in S. cerevisiae (AID 488863); format: functional, organism-based
[6] = target: NACHT, LRR and PYD domains-containing protein 1 (Homo sapiens, UniProt Q9C000); assay: NALP1 inhibitors in yeast, dose response, luminescent (AID 488860); format: functional
[7] = target: T1, Eukaryotic translation initiation factor 4H; assay: human eIF4H binding inhibitors, primary screen, translation initiation inhibitor project, biochemical, uHTS, fluorescence polarization (AID 2012)
[8] = target: T2, Polyadenylate-binding protein 1; assay: PABP poly(A) RNA binding inhibitors, primary screen, biochemical, fluorescence polarization, uHTS (AID 2014)
[9] = target: T5, Tyrosine-protein phosphatase non-receptor type 7 (Homo sapiens, UniProt P35236); assay: redox-dependent HePTP inhibition, mechanism study, biochemical, fluorescence (AID 2068); format: functional
T5 sequence (P35236 whole entry): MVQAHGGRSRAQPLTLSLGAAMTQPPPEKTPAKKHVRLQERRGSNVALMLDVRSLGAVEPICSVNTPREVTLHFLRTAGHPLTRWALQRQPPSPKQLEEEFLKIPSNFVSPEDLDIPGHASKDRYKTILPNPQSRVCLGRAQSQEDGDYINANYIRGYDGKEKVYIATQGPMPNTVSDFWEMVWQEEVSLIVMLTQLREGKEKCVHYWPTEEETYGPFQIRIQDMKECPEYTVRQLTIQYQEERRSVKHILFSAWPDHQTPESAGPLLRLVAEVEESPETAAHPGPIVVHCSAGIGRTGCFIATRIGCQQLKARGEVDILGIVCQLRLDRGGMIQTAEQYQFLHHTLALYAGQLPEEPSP

[10] = target: Voltage-gated N-type calcium channel alpha-1B subunit/Amyloid beta A4 precursor protein-binding family A member 1 (Homo sapiens, UniProt Q00975+Q02410); assay: disruptors of Mint-PDZ/N-type channel peptide interaction – biochemical, HTRF, SAR follow-up (AID 2489); format: functional
Wee1-like protein kinase = Wee1-like protein kinase (Homo sapiens, UniProt P30291); assay: G2/M cell cycle arrest in HeLa, late-stage follow-up, mechanism study for Wee1 degradation inhibitor project, FACS, panel member Wee1 Degradation (AID 2088)
[11] = target: G2/mitotic-specific cyclin-B1 (Homo sapiens, UniProt P14635); assay: G2/M cell cycle arrest in HeLa, late-stage follow-up, mechanism study for Wee1 degradation inhibitor project, FACS, panel member Cyclin B Degradation (AID 2088)
[12] = target: T6, Eukaryotic translation initiation factor 2-alpha kinase 3 (Homo sapiens, UniProt Q9NZJ5); assay: Dose response cell-based high-throughput screening assay to measure PERK inhibition. [Related pubchem assays: 1416 ]; format: functional
[13] = target: T6, Eukaryotic translation initiation factor 2-alpha kinase 3; assay: Counterscreen assay for PERK inhibitors: Dose response cell-based high throughput screening assay to measure inhibition of PERK at 6 hours. [Related pubchem assays: 1522, 1416 ]; format: functional

T6 sequence (Q9NZJ5 whole entry): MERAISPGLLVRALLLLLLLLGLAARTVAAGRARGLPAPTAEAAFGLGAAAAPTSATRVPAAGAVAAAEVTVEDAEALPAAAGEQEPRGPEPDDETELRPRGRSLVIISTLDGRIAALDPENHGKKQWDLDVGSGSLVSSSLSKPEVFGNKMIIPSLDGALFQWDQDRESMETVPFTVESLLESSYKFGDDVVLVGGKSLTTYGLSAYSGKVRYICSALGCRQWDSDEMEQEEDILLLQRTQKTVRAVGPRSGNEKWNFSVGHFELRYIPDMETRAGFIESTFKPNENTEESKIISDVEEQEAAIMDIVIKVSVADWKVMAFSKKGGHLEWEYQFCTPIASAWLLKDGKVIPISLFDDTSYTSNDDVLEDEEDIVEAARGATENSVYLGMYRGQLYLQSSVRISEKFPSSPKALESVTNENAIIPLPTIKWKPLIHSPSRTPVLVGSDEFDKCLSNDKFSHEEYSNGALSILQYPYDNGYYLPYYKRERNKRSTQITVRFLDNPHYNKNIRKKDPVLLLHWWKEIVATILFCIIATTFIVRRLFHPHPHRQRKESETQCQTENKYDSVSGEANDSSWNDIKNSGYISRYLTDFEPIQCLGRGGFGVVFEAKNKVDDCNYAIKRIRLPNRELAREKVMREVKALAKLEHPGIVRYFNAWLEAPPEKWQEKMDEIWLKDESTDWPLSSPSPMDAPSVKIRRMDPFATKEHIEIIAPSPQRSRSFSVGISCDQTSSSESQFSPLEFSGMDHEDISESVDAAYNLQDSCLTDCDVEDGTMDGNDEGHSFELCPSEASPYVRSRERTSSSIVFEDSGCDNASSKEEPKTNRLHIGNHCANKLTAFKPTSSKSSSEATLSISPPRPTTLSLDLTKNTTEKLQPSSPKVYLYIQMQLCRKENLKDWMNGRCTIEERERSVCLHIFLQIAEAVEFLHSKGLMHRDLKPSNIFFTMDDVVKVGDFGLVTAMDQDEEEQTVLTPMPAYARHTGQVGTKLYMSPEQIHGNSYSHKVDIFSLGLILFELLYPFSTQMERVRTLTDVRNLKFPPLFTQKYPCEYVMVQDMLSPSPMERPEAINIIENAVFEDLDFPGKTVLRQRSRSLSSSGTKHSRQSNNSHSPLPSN
T2 sequence (P11940 whole entry, the tested form may be a part): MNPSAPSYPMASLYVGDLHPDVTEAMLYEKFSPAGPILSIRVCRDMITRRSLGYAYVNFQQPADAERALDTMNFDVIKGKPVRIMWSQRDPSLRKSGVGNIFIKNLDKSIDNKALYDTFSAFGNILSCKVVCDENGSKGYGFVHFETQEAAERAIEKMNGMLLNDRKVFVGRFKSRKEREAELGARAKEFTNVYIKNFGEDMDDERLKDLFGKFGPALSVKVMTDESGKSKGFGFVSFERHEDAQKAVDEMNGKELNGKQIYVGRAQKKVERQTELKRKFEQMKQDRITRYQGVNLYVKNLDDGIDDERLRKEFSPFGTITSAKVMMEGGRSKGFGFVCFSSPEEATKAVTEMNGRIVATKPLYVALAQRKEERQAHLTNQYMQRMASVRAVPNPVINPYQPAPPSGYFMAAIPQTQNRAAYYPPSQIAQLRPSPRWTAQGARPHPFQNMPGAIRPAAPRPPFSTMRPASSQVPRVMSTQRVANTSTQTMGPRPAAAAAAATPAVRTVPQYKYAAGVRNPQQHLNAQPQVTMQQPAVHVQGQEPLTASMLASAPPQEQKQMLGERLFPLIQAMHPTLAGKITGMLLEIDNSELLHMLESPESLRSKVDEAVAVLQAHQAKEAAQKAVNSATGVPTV
G2/mitotic-specific cyclin-B1, sequence (P14635 whole entry): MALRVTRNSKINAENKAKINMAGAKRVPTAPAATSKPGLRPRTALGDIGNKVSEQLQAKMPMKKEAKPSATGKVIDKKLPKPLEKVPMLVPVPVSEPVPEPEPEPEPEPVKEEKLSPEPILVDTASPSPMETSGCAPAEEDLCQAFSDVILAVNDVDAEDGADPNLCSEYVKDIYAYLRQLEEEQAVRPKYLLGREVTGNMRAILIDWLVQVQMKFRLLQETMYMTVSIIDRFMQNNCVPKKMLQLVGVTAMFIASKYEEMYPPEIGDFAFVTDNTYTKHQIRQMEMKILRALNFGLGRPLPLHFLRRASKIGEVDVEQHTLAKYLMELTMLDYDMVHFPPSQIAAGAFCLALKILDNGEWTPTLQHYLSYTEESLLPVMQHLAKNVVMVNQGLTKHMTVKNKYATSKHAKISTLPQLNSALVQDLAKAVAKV
Wee1-like protein kinase, sequence (P30291 whole entry): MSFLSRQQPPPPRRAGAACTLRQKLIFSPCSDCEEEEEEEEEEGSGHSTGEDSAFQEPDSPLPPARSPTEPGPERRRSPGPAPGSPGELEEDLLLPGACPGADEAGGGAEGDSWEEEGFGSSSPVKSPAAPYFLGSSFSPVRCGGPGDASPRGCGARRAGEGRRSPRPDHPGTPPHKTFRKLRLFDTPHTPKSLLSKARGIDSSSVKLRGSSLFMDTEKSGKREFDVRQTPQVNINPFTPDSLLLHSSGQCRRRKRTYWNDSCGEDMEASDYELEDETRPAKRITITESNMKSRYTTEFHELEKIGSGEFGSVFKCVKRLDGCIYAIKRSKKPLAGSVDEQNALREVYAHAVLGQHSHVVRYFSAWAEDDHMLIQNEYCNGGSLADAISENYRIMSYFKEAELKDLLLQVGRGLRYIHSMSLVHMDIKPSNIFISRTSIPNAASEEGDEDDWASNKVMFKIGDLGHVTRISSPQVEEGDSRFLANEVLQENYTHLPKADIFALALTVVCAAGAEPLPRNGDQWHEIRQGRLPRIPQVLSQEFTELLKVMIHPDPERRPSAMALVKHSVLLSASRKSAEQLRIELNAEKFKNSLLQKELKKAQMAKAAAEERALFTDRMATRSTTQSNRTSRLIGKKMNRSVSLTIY
NACHT, LRR and PYD domains-containing protein 1, sequence (Q9C000 1-1212 limits assumed): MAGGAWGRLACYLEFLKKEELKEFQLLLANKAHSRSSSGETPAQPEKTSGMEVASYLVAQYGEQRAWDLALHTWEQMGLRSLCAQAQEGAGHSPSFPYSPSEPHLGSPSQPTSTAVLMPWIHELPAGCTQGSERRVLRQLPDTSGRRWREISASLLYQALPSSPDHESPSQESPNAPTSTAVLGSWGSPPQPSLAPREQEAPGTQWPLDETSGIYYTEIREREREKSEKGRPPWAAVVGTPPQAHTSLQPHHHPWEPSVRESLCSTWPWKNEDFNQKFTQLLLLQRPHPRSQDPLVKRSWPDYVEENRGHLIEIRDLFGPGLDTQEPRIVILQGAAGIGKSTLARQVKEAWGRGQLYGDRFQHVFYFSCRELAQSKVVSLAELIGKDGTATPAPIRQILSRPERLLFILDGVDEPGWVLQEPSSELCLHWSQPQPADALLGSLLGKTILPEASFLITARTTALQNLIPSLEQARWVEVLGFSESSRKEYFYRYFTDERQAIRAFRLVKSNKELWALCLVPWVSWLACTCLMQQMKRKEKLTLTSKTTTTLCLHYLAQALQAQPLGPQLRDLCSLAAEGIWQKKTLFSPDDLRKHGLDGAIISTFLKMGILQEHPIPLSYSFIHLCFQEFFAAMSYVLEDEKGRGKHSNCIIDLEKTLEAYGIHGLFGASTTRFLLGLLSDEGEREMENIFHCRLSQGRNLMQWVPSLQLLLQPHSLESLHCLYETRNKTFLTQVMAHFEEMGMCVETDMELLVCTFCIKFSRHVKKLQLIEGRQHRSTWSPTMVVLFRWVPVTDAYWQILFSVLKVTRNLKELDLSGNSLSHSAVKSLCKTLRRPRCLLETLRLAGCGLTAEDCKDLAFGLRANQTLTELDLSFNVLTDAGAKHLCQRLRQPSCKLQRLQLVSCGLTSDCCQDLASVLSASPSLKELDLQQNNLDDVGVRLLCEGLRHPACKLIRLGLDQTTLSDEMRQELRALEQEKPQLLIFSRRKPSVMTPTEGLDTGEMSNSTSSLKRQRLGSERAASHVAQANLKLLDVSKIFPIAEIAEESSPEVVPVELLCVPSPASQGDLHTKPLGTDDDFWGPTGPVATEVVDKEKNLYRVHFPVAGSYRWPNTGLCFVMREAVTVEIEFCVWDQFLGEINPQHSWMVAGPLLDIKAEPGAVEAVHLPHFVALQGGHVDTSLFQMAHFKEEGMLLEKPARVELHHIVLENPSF
NACHT, LRR and PYD domains-containing protein 1, sequence (Q9C000 1213-1473 limits assumed): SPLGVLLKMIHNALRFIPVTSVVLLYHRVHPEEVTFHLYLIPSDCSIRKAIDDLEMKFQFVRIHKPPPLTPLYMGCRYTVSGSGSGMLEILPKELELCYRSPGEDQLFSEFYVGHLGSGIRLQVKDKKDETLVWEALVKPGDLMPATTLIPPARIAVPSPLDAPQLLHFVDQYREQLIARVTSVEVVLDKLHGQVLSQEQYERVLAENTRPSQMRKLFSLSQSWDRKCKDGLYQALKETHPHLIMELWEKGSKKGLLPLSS

SMILES: CCCC(=O)Nc1cccc(NC(=O)c2ccccc2C)c1
- AC50 [1]: 5.5 µM (active)

SMILES: Cc1cccc(NC(=O)CN2C(=O)N/C(=C\c3ccccc3OCc3ccc(C(=O)O)cc3)C2=O)c1
- IC50 [2]: 17.5 µM (active)
- IC50 [3]: 77.6 µM (active)
- IC50 [4]: 6.07 µM (active)
- AC50 [5]: 9.77 µM (active)

SMILES: CCCCC(=O)Nc1ccc(C(=O)NNC(=S)NC(=O)c2ccco2)cc1
- IC50 (Saccharomyces cerevisiae): 18.8 µM (active)
- IC50 [6]: 25.7 µM (active)

SMILES: C[N+]1(C)[C@@H]2CC[C@H]1CC(OC(=O)[C@@H](CO)c1ccccc1)C2 (stereo not given in full)
- IC50 [7]: > 100 µM (inactive)
- IC50 [8]: 4.91 µM (active)

SMILES: O=C(Nc1ccc2nc(-c3ccco3)c(-c3ccco3)nc2c1)N1CCOCC1
- IC50 [9]: 0.693 µM (active)
- IC50 [10]: 22.3 µM (active)

SMILES: Cc1cc(=O)[nH]c(-n2nc(C)cc2NC(=O)c2cccs2)n1
- EC50 (Wee1-like protein kinase): > 49.7 µM (inactive)
- EC50 [11]: > 49.7 µM (inactive)

SMILES: CCCn1cnc2c(S)nc(N)nc21
- EC50 [12]: > 55.7 µM (not active)
- EC50 [13]: > 55.7 µM (not active)
